Assay results reported in patent US10894807B2 (Siemens Medical Solutions USA, Inc., priority 2011, dated 2021).

Target: human PSMA (Homo sapiens (Human), UniProt Q04609)
Assay: Enzymatic assay for in vitro evaluation of PSMA inhibitors (fluorescent assay of PSMA activity, NAAG substrate, OPA detection of glutamate)
Format: biochemical
Settings: for PSMA Blkg % (10 μM): compound at 10 μM
Protocol: Enzymatic Assay for In Vitro Evaluation of PSMA Inhibitors
The inhibitory activity of all compounds was determined using a fluorescent assay of human PSMA activity. The enzyme used in the assay was purchased from R&D Systems and stored at −80° C. The PSMA activity was assayed in a two-step process. In the first step, aliquots of enzyme (0.2 μg/mL) were incubated for 1 h at 37° C. in 50 mM HEPES, 0.1 M NaCl, pH 7.5, in the presence of 20 μM NAAG and the given inhibitor, in a volume of 250 μL, to allow for the accumulation of glutamate produced in the PSMA reaction. In the second step, the amount of accumulated glutamate was measured using the OPA reaction, and the fluorescence was read with a SpectraMax fluorescent plate reader using excitation at 330 nm and emission at 450 nm. The final Ki values for each inhibitor were calculated from the respective IC50 values using the Cheng and Prusoff equation.

Sequence of human PSMA (Q04609 whole entry): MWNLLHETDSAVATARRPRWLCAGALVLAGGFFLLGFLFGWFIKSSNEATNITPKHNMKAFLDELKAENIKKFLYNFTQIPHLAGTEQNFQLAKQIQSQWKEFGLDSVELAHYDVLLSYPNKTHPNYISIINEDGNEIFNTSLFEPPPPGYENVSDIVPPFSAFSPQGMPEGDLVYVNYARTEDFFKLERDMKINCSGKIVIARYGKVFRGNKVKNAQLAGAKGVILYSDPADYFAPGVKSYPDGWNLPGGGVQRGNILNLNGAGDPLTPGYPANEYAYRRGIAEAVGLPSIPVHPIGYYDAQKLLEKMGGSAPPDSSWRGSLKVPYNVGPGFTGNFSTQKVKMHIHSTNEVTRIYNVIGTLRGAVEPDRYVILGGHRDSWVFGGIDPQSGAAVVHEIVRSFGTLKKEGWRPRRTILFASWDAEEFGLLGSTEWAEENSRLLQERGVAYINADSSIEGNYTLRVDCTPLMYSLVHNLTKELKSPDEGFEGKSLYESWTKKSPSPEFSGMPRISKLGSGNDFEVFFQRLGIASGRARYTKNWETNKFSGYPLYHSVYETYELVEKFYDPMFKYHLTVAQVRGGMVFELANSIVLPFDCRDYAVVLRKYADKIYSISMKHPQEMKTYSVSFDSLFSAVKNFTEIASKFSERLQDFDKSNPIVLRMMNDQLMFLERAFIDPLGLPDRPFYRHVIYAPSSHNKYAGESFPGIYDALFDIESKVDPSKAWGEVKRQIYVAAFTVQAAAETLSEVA

PSMA Blkg % (10 μM) [%]	Ki [nM]	Compound	PSMA Blkg % (1.0 μM) [%]
10		2-(4-(2-(((Benzyloxy)carbonyl)amino)-3-methoxy-3-oxopropyl)-1H-1,2,3-triazol-1-yl)pentanedioic Acid [P124]	
	9.4	O=C(O)CC[C@H](NC(=O)N[C@@H](CCCCNC(=O)N1CCN(C(=O)c2ccc(-n3cc(CCCF)nn3)cc2)CC1)C(=O)O)C(=O)O (stereo in doubt) [P249, (S)-2-(3-((S)-1-Carboxy-5-(4-(4-(4-(3-fluoropropyl)-1H-1,2,3-triazol-1-yl)benzoyl)-piperizine-1-carboxamido)pentyl)ureido)pentanedioic Acid]	
	13.1	O=C(O)CC[C@H](NC(=O)NC(Cc1ccc(NC(=O)N2CCN(C(=O)c3cc(NC(=O)Cn4cc(CCCF)nn4)cc(C(=O)N4CCN(C(=O)Nc5ccc(CC(NC(=O)N[C@@H](CCC(=O)O)C(=O)O)C(=O)O)cc5)CC4)c3)CC2)cc1)C(=O)O)C(=O)O (stereo in doubt) [P274, (2S,2′S)-2,2′-(((((1S,1′S)-(((4,4′-(5-(2-(4-(3-Fluoropropyl)-1H-1,2,3-triazol-1-yl)acetamido)isophthaloyl)bis(piperazine-1,1′-carbonyl))bis(azanediyl))bis(4,1-phenylene))bis(1-carboxyethane-2,1-diyl))bis(azanediyl))bis(carbonyl))bis(azanediyl))dipentanedioic Acid]	
	6.6	O=C(O)CC[C@H](NC(=O)NC(Cc1ccc(NC(=O)N2CCN(C(=O)c3cc(C(=O)N4CCN(C(=O)Nc5ccc(CC(NC(=O)N[C@@H](CCC(=O)O)C(=O)O)C(=O)O)cc5)CC4)cc(-n4cc(CCCF)nn4)c3)CC2)cc1)C(=O)O)C(=O)O (stereo in doubt) [P275, (2S,2′S)-2,2′-(((((1S,1′S)-(((4,4′-(5-(4-(3-Fluoropropyl)-1H-1,2,3-triazol-1-yl)isophthaloyl)bis(piperazine-1,1′-carbonyl))bis(azanediyl))bis(4,1-phenylene))bis(1-carboxyethane-2,1-diyl))bis(azanediyl))bis(carbonyl))bis(azanediyl))dipentanedioic Acid]	
	1.3	O=C(O)CC[C@H](NC(=O)N[C@@H](CCCCNC(=O)N1CCN(C(=O)CCC(CCC(=O)N2CCN(C(=O)NCCCC[C@H](NC(=O)N[C@@H](CCC(=O)O)C(=O)O)C(=O)O)CC2)NC(=O)c2ccc(-n3cc(CCCF)nn3)cc2)CC1)C(=O)O)C(=O)O (stereo in doubt) [P281, (2S,2′S)-2,2′-(((((1S,1′S)-((4,4′-(4-(4-(4-(3-Fluoropropyl)-1H-1,2,3-triazol-1-yl)benzamido)heptanedioyl)bis(piperazine-1,1′-carbonyl))bis(azanediyl))bis(1-carboxypentane-5,1diyl))-bis(azanediyl))-bis(carbonyl))-bis(azanediyl))-dipentanedioic Acid]	
	0.7	O=C(O)CCC(NC(=O)NC(CC1CCN(C(=O)CCC(CCC(=O)N2CCC(C[C@H](NC(=O)NC(CCC(=O)O)C(=O)O)C(=O)O)CC2)NC(=O)c2ccc(-n3cc(CCCF)nn3)cc2)CC1)C(=O)O)C(=O)O (stereo in doubt) [P292, (2S)-2-(3-((1S)-1-Carboxy-2-(1-(7-(4-((S)-2-carboxy-2-(3-((S)-1,3-dicarboxypropyl)-ureido)-ethyl)-piperidin-1-yl)-4-(4-(4-(3-fluoropropyl)-1H-1,2,3-triazol-1-yl)-benzamido)7-oxoheptanoyl)-piperidin-4-yl)ethyl)ureido)pentanedioic Acid]	96
97	50	O=C(O)CC[C@H](NC(=O)N[C@@H](CSCc1ccc(F)cc1)C(=O)O)C(=O)O [P001]	
92		O=C(O)CC[C@H](NC(=O)N[C@@H](CCCCNC(=O)c1ccc(F)nc1)C(=O)O)C(=O)O [P002, (S)-2-(3-((S)-1-Carboxy-5-(6-fluoronicotinamido)pentyl)ureido)pentanedioic Acid]	
99		O=C(O)CC[C@H](NC(=O)N[C@@H](CCCCNC(=O)c1ccc(Cl)nc1)C(=O)O)C(=O)O [P003, (S)-2-(3-((S)-1-Carboxy-5-(6-chloronicotinamido)pentyl)ureido)pentanedioic Acid]	
90	15.6	O=C(O)CC[C@H](NC(=O)N[C@@H](CCCCNC(=O)c1ccnc(F)c1)C(=O)O)C(=O)O [P004, (S)-2-(3-((S)-1-Carboxy-5-(2-fluoroisonicotinamido)pentyl)ureido)pentanedioic Acid]	
89	40.7	O=C(O)CC[C@H](NC(=O)N[C@@H](CCCCNC(=O)Cn1cc(CCCF)nn1)C(=O)O)C(=O)O [P005, (S)-2-(3-((S)-1-Carboxy-5-(2-(4-(3-fluoropropyl)-1H-1,2,3-triazol-1-yl)acetamido)pentyl)ureido)pentanedioic Acid]	
0		O=C(Nc1cc(C(=O)O)cc(C(=O)O)c1)N[C@@H](Cc1ccc(OCCF)cc1)C(=O)O [P006, (S)-5-(3-(1-Carboxy-2-(4-(2-fluoroethoxy)phenyl)ethyl)ureido)isophthalic Acid]	
0		O=C(Cn1cc(CCCF)nn1)NCCCC[C@H](NC(=O)Nc1cc(C(=O)O)cc(C(=O)O)c1)C(=O)O [P007, (S)-5-(3-(1-Carboxy-5-(2-(4-(3-fluoropropyl)-1H-1,2,3-triazol-1-yl)acetamido)pentyl)-ureido)isophthalic Acid]	
21		O=C(O)CC[C@H](NC(=O)N(CC(=O)O)[C@@H](CCCCNC(=O)OCc1ccccc1)C(=O)O)C(=O)O [P008, (9S,13S)-10-(Carboxymethyl)-3,1-dioxo-1-phenyl-2-oxa-4,10,12-triazapentadecane-9,13,15-tricarboxylic Acid]	
0		O=C(O)CC[C@H](NC(=O)N(CCc1ccccc1)CC(=O)O)C(=O)O [P010, (S)-2-(3-(Carboxymethyl)-3-phenethylureido)pentanedioic Acid]	
0		O=C(O)CC[C@H](NC(=O)N(CC(=O)O)NC(=O)Cc1ccccc1)C(=O)O [P011, (S)-2-(1-(Carboxymethyl)-2-(2-phenylacetyl)hydrazinecarboxamido)pentanedioic Acid]	
0		O=C(O)CC[C@H](NC(=O)N(CC(=O)O)[C@@H](CCCCNC(=O)OCc1ccccc1)C(=O)NO)C(=O)O [P012, (S)-2-(3-((S)-6-(((Benzyloxy)carbonyl)amino)-1-(hydroxyamino)-1-oxohexan-2-yl)-3-(carboxymethyl)ureido)pentanedioic Acid]	
16		O=C(O)CN(CC(=O)O)NC(=O)NC(CSCc1ccccc1)C(=O)O (centres unmarked) [P013, 2,2′-(2-((2-(Benzylthio)-1-carboxyethyl)carbamoyl)hydrazine-1,1-diyl)diacetic Acid]	
0		O=C(O)CC[C@H](NC(=O)C[C@H](NC(=O)OCc1ccccc1)C(=O)O)C(=O)O [P015, (S)-2-((S)-3-(((Benzyloxy)carbonyl)amino)-3-carboxypropanamido)pentanedioic Acid]	

Compound	PSMA Blkg % (10 μM) [%]	Ki [nM]	PSMA Blkg % (1.0 μM) [%]
O=C(O)CC[C@H](NC(=O)N[C@@H](CCCCNc1cc(OCC(COc2ccc([N+](=O)[O-])c(NCCCC[C@H](NC(=O)N[C@@H](CCC(=O)O)C(=O)O)C(=O)O)c2)n2cc(CCCF)nn2)ccc1[N+](=O)[O-])C(=O)O)C(=O)O (stereo in doubt) [P266, (2S)-2-(3-((1)-1-Carboxy-5-((5-(3-(3-(((S)-5-carboxy-5-(3-((S)-1,3-dicarboxypropyl)ureido)pentyl)amino)-4-nitrophenoxy)-2-(4-(3-fluoropropyl)-1H-1,2,3-triazol-1-yl)propoxy)-2-nitrophenyl)amino)pentyl)ureido)pentanedioic Acid]		0.3	
O=C(O)CCC(NC(=O)N[C@@H](CCCCNc1nc(NCCN(CCNc2ccc([N+](=O)[O-])c(NCCCCC(NC(=O)N[C@@H](CCC(=O)O)C(=O)O)C(=O)O)n2)CCNc2ccc([N+](=O)[O-])c(NCCCCC(NC(=O)N[C@@H](CCC(=O)O)C(=O)O)C(=O)O)n2)ccc1[N+](=O)[O-])C(=O)O)C(=O)O (stereo in doubt) [P270, (2S,2′S,2″S)-2,2′,2″-(((((1S,1′S,1″S)-((6,6′,6″-((Nitrilotris(ethane-2,1-diyl))tris(azanediyl))tris(3-nitropyridine-6,2-diyl))tris(azanediyl))tris(1-carboxypentane-5,1-diyl))tris(azanediyl))tris(carbonyl))tris(azanediyl))tripentanedioic Acid]		0.2	71
O=C(O)CCC(NC(=O)N[C@@H](CCCCNc1cc(OCC(COc2ccc([N+](=O)[O-])c(NCCCCC(NC(=O)N[C@@H](CCC(=O)O)C(=O)O)C(=O)O)c2)OCc2cn(CCF)nn2)ccc1[N+](=O)[O-])C(=O)O)C(=O)O (stereo in doubt) [P277, (2S)-2-(3-((1S)-1-Carboxy-5-((5-(3-(3-(((S)-5-carboxy-5-(3-((S)-1,3-dicarboxypropyl)ureido)pentyl)amino)-4-nitrophenoxy)-2-((1-(2-fluoroethyl)-1H-1,2,3-triazol-4-yl)methoxy)propoxy)-2-nitrophenyl)amino)pentyl)ureido)pentanedioic Acid]		0.4	
O=C(O)CCC(NC(=O)NC(CCCCNC(=O)CC(CC(=O)NCCCCC(NC(=O)N[C@@H](CCC(=O)O)C(=O)O)C(=O)O)NC(=O)c1ccc(-n2cc(CCCF)nn2)cc1)C(=O)O)C(=O)O (stereo in doubt) [P278, (3S,7S,23S,27S)-15-(4-(4-(3-Fluoropropyl)-1H-1,2,3-triazol-1-yl)benzamido)-5,13,17,25-tetraoxo-4,6,12,18,24,26-hexaazanonacosane-1,3,7,23,27,29-hexacarboxylic Acid]		0.2	
O=C(O)CCC(CP(=O)(O)O)C(=O)O (centres unmarked) [P009]	100		
